Tested on: P388
Assay: Induction of apoptosis in P388D1 cell line
Format: functional, Mus musculus, DBA/2
Parameters: concentration or dose not given beside the values

O=C(CCCCCCCCCc1ccccc1)CC(=O)N[C@H]1CCOC1=O
Activity: 14.5%

CCCCCCCCC(=O)CCC(=O)N[C@H]1CCOC1=O
Activity: 115.6%

CCCCCCCCCCCC(=O)CC(=O)N[C@H]1CCOC1=O
Activity: 14.8%

CCCCC(=O)N[C@H]1CCOC1=O
Activity: 101.8%

CCCCCCCC(=O)CC(=O)N[C@H]1CCOC1=O
Activity: 107.7%

CCCC(=O)N[C@H]1CCOC1=O
Activity: 100.4%

CCCCCCCCCC(=O)CC(=O)N[C@H]1CCOC1=O
Activity: 31.9%

CCCCCCCCCC(=O)CC(=O)N[C@@H]1CCOC1=O
Activity: 105%

O=C(CCCCCC1CC1)CC(=O)N[C@H]1CCOC1=O
Activity: 122.9%

O=C(CCCCCCCc1ccccc1)CC(=O)N[C@H]1CCOC1=O
Activity: 25.2%

CCCCCCCC(=O)CCCC(=O)N[C@H]1CCOC1=O
Activity: 97.7%

O=C(CCCCCc1ccccc1)CC(=O)N[C@H]1CCOC1=O
Activity: 122%

O=C(O)CCC(=O)OCCCCCCCCCC(=O)CC(=O)N[C@H]1CCOC1=O
Activity: 114%

CCCCCCCCCC(=O)CC(=O)Nc1ccccc1O
Activity: 109.6%

CCCCCCCCCC(=O)CC(=O)N[C@H]1CCCC[C@@H]1O
Activity: 96.2%

O=C(CCCCCCCC1CC1)CC(=O)N[C@H]1CCOC1=O
Activity: 38.7%

O=C(CCCCCCCCCCCc1ccccc1)CC(=O)N[C@H]1CCOC1=O
Activity: 12.2%

CCCCCCCCCC(=O)CC(=O)N[C@@H](C)C(=O)OC
Activity: 111.2%

CCCCC(=O)CC(=O)N[C@H]1CCOC1=O
Activity: 111%

CCCCCCCCCCCC(=O)N[C@H]1CCOC1=O
Activity: 91.1%

O=C(CCCCCCCCCO)CC(=O)N[C@H]1CCOC1=O
Activity: 109.5%
